Assay results published in US20220204476A1, “RNA VIRUS INHIBITOR COMPOUNDS AND USES THEREOF” (The Governors of the University of Alberta, priority 2020, published 2022).

What was measured:
SARS-CoV-2 3CLP = SARS-CoV-2 3CLP (Severe acute respiratory syndrome coronavirus 2, UniProt P0DTD1); assay: SARS-CoV-2 3CLP inhibition, FRET-based cleavage assay; type: biochemical; details: 80 nM SARS-CoV-2 3CLP, 100 μM substrate, 37° C., 10 min incubation, pH 7.8; read-out: 3CL Protease IC50
SARS-CoV-2 = SARS-CoV-2 in vitro plaque reduction assay in Vero E6 cells; type: cell-based; details: Severe acute respiratory syndrome coronavirus 2, Vero C1008, MOI 0.0001 pfu/cell, plaques counted after 48 h, >5 μM = did not reduce plaque numbers by half at 10 μM, read-out: SARS-CoV-2 Antiviral EC50

Row | SMILES | IC50 (SARS-CoV-2 3CLP) | EC50 (SARS-CoV-2)
1 | COc1cccc2[nH]c(C(=O)N[C@@H](CC(C)C)C(=O)N[C@@H](C[C@@H]3CCNC3=O)C(=O)COC(=O)c3c(C(F)(F)F)cccc3C(F)(F)F)cc12 [Compound 25, (3S)-3-{[N-(4-methoxy-1H-indole-2-carbonyl)-L-leucyl]amino}-2-oxo-4-[(3S)-2-oxopyrrolidin-3-yl]butyl 2,6-bis(trifluoromethyl)benzoate] | 18 nM | < 250 nM
2 | COc1cccc2[nH]c(C(=O)N[C@@H](CC(C)C)C(=O)N[C@@H](C[C@@H]3CCNC3=O)C(=O)COC(=O)C(C)(C)C(F)(F)F)cc12 [Compound 27, (3S)-3-{[N-(4-methoxy-1H-indole-2-carbonyl)-L-leucyl]amino}-2-oxo-4-[(3S)-2-oxopyrrolidin-3-yl]butyl 3,3,3-trifluoro-2,2-dimethylpropanoate] | 29 nM | > 5000 nM
3 | COc1cccc2[nH]c(C(=O)N[C@@H](CC(C)C)C(=O)N[C@@H](C[C@@H]3CCCNC3=O)C(=O)COc3ccc(S(C)(=O)=O)cc3)cc12 [Compound 30, N-[(2S)-1-({(2S)-4-[4-(methanesulfonyl)phenoxy]-3-oxo-1-[(3S)-2-oxopiperidin-3-yl]butan-2-yl}amino)-4-methyl-1-oxopentan-2-yl]-4-methoxy-1H-indole-2-carboxamide] | 53 nM | > 5000 nM
4 | CC(C)C[C@H](NC(=O)OCc1ccccc1)C(=O)N[C@H](C#N)C[C@@H]1CCCNC1=O [Compound 66, N^2-[(benzyloxy)carbonyl]-N-{(1S)-1-cyano-2-[(3S)-2-oxopiperidin-3-yl]ethyl}-L-leucinamide] | 340 nM | > 5000 nM
5 | CC(C)C[C@H](NC(=O)OCC1c2ccccc2-c2ccccc21)C(=O)N[C@H](C#N)C[C@@H]1CCCNC1=O [Compound 67, N-{(1S)-1-cyano-2-[(3S)-2-oxopiperidin-3-yl]ethyl}-N^2-{[(9H-fluoren-9-yl)methoxy]carbonyl}-L-leucinamide] | 170 nM | 4100 nM
6 | COc1cc(Cl)cc2[nH]c(C(=O)N[C@@H](CC(C)C)C(=O)N[C@H](C#N)C[C@@H]3CCCNC3=O)cc12 [Compound 68, 6-chloro-N-[(2S)-1-({(1S)-1-cyano-2-[(3S)-2-oxopiperidin-3-yl]ethyl}amino)-4-methyl-1-oxopentan-2-yl]-4-methoxy-1H-indole-2-carboxamide] | 9.1 nM | 2200 nM
7 | CC(C)C[C@H](NC(=O)c1nc(-c2ccccc2)c[nH]1)C(=O)N[C@H](C#N)C[C@@H]1CCCNC1=O [Compound 75, N-{(1S)-1-cyano-2-[(3S)-2-oxopiperidin-3-yl]ethyl}-N^2-(4-phenyl-1H-imidazole-2-carbonyl)-L-leucinamide] | 160 nM | > 5000 nM
8 | CC(C)C[C@H](NC(=O)C1(O)CCCC1)C(=O)N[C@H](C#N)C[C@@H]1CCCNC1=O [Compound 76, N-{(1S)-1-cyano-2-[(3S)-2-oxopiperidin-3-yl]ethyl}-N^2-(1-hydroxycyclopentane-1-carbonyl)-L-leucinamide] | 950 nM | > 5000 nM
9 | CC(C)C[C@H](NCC1CC1)C(=O)N[C@H](C#N)C[C@@H]1CCCNC1=O [Compound 77, N-{(1S)-1-cyano-2-[(3S)-2-oxopiperidin-3-yl]ethyl}-N^2-(cyclopropylmethyl)-L-leucinamide] | 17000 nM | > 5000 nM
10 | CC(C)C[C@H](NCc1ccc[nH]c1=O)C(=O)N[C@H](C#N)C[C@@H]1CCCNC1=O [Compound 78, N-{(1S)-1-cyano-2-[(3S)-2-oxopiperidin-3-yl]ethyl}-N^2-[(2-oxo-1,2-dihydropyridin-3-yl)methyl]-L-leucinamide] | 47000 nM | > 5000 nM
11 | CC(C)C[C@H](NC(=O)c1cc2ccccc2o1)C(=O)N[C@H](C#N)C[C@@H]1CCCNC1=O [Compound 79, N-[(2S)-1-({(1S)-1-cyano-2-[(3S)-2-oxopiperidin-3-yl]ethyl}amino)-4-methyl-1-oxopentan-2-yl]-1-benzofuran-2-carboxamide] | 250 nM | 4500 nM
12 | CC(C)C[C@H](NC(=O)[C@H]1CCCO1)C(=O)N[C@H](C#N)C[C@@H]1CCCNC1=O [Compound 80, N-{(1S)-1-cyano-2-[(3S)-2-oxopiperidin-3-yl]ethyl}-N^2-[(2R)-oxolane-2-carbonyl]-L-leucinamide] | 710 nM | > 5000 nM
13 | Cc1ccc(C(=O)N[C@@H](CC(C)C)C(=O)N[C@H](C#N)C[C@@H]2CCCNC2=O)cn1 [Compound 81, N-{(1S)-1-cyano-2-[(3S)-2-oxopiperidin-3-yl]ethyl}-N^2-(6-methylpyridine-3-carbonyl)-L-leucinamide] | 620 nM | > 5000 nM
14 | CC(C)C[C@H](NS(=O)(=O)c1cccc2c1OCCO2)C(=O)N[C@H](C#N)C[C@@H]1CCCNC1=O [Compound 82, N-{(1S)-1-cyano-2-[(3S)-2-oxopiperidin-3-yl]ethyl}-N^2-(2,3-dihydro-1,4-benzodioxine-5-sulfonyl)-L-leucinamide] | 2400 nM | > 5000 nM
15 | CC(C)C[C@H](NS(=O)(=O)N1CCCCC1)C(=O)N[C@H](C#N)C[C@@H]1CCCNC1=O [Compound 83, N-{(1S)-1-cyano-2-[(3S)-2-oxopiperidin-3-yl]ethyl}-N^2-(piperidine-1-sulfonyl)-L-leucinamide] | 4500 nM | > 5000 nM
16 | CC(C)C[C@H](NS(=O)(=O)C1CCCCC1)C(=O)N[C@H](C#N)C[C@@H]1CCCNC1=O [Compound 84, N-{(1S)-1-cyano-2-[(3S)-2-oxopiperidin-3-yl]ethyl}-N^2-(cyclohexanesulfonyl)-L-leucinamide] | 3100 nM | > 5000 nM
17 | Cc1ccc(S(=O)(=O)N[C@@H](CC(C)C)C(=O)N[C@H](C#N)C[C@@H]2CCCNC2=O)cn1 [Compound 85, N-{(1S)-1-cyano-2-[(3S)-2-oxopiperidin-3-yl]ethyl}-N^2-(6-methylpyridine-3-sulfonyl)-L-leucinamide] | 6400 nM | > 5000 nM
18 | CC(C)(C)C[C@H](NC(=O)OCC1c2ccccc2-c2ccccc21)C(=O)N[C@H](C#N)C[C@@H]1CCCNC1=O [Compound 86, N-{(1S)-1-cyano-2-[(3S)-2-oxopiperidin-3-yl]ethyl}-N^2-{[(9H-fluoren-9-yl)methoxy]carbonyl}-4-methyl-L-leucinamide] | 110 nM | 4300 nM
19 | Cc1cc(C)c(C(=O)OCC(=O)[C@H](C[C@@H]2CCCNC2=O)NC(=O)[C@H](CC(C)(C)C)NC(=O)[C@H]2CCCO2)c(C)n1 [Compound 87, (3S)-3-({4-methyl-N-[(2R)-oxolane-2-carbonyl]-L-leucyl}amino)-2-oxo-4-[(3S)-2-oxopiperidin-3-yl]butyl 2,4,6-trimethylpyridine-3-carboxylate] | 200 nM | 1900 nM
20 | CC(C)(C)C[C@H](NC(=O)c1nc2ccccc2[nH]1)C(=O)N[C@H](C#N)C[C@@H]1CCCNC1=O [Compound 88, N-[(2S)-1-({(1S)-1-cyano-2-[(3S)-2-oxopiperidin-3-yl]ethyl}amino)-4,4-dimethyl-1-oxopentan-2-yl]-1H-benzimidazole-2-carboxamide] | 40 nM | > 5000 nM
21 | CC(C)(C)C[C@H](NC(=O)[C@@H]1CCCN1C(=O)OCc1ccccc1)C(=O)N[C@H](C#N)C[C@@H]1CCCNC1=O [Compound 89, 1-[(benzyloxy)carbonyl]prolyl-N-{(1S)-1-cyano-2-[(3S)-2-oxopiperidin-3-yl]ethyl}-4-methyl-L-leucinamide] | 2800 nM | > 5000 nM
